The results in this text go back to patent US7323485B2, “4-(substituted cycloalkylmethyl) imidazole-2-thiones, 4-(substituted cycloalkenylmethyl) imidazole-2-thiones, 4-(substituted cycloalkylmethyl) imidazol-2-ones and 4-(substituted cycloalkenylmethyl) imidazol-2-ones and related compounds” (Allergan, Inc., priority 2002, dated 2008).

Test [1] deals with T1, alpha2B adrenergic receptors (Homo sapiens, UniProt P18089).
T1 construct: expressed in transfected cells; host or cells: NIH-3T3
T1 sequence (P18089 1-450): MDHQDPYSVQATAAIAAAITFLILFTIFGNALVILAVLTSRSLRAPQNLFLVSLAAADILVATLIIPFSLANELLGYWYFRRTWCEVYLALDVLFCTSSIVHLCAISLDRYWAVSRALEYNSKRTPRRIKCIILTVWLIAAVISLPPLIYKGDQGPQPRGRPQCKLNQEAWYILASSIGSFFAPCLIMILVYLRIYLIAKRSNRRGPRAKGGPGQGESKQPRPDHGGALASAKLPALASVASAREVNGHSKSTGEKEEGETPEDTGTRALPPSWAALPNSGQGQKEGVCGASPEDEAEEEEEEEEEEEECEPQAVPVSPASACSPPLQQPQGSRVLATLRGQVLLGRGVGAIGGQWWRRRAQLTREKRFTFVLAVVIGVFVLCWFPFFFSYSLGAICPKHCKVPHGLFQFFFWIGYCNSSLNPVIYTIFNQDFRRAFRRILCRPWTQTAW
The test can be described thus: Receptor Selection and Amplification Technology (RSAT) assay, alpha2B. Particulars: for EC50: NA = not active at concentrations less than 10 micromolar, read-out: Alpha 2B EC50; for Alpha 2B intrinsic activity: fraction of maximal effect of standard full agonist brimonidine (UK14304). The test is classed as cell-based. The text has this: (§1) The imidazole-2-thione compounds of the invention are agonists of alpha2 adrenergic receptors, particularly they tend to be specific or selective agonists of alpha2B and/or to a lesser extent alpha2C adrenergic receptors, in preference over alpha2A adrenergic receptors. […] Al., 1995, Pharmacol. Toxicol. 76, pp. 308-311 (incorporated herein by reference) and is also described below. Another reference pertinent to this assay is Conklin et al. (1993) Nature 363:274-6, also incorporated herein by reference.
(§2) Receptor Selection and Amplification Technology (RSAT) Assay
(§3) The RSAT assay measures a receptor-mediated loss of contact inhibition that results in selective proliferation of receptor-containing cells in a mixed population of confluent cells. The increase in cell number is assessed with an appropriate transfected marker gene such as β-galactosidase, the activity of which can be easily measured in a 96-well format. Receptors that activate the G protein, Gq, elicit this response. Alpha2 receptors, which normally couple to Gi, activate the RSAT response when coexpressed with a hybrid Gq protein that has a Gi receptor recognition domain, called Gq/i5.
(§4) NIH-3T3 cells are plated at a density of 2×10^6 cells in 15 cm dishes and maintained in Dulbecco's modified Eagle's medium supplemented with 10% calf serum. One day later, cells are cotransfected by calcium phosphate precipitation with mammalian expression plasmids encoding p-SV-β-galactosidase (5-10 μg), receptor (1-2 μg) and G protein (1-2 μg). 40 μg salmon sperm DNA may also be included in the transfection mixture. Fresh media is added on the following day and 1-2 days later, cells are harvested and frozen in 50 assay aliquots. Cells are thawed and 100 μl added to 100 μl aliquots of various concentrations of drugs in triplicate in 96-well dishes. Incubations continue 72-96 hr at 37 EC. After washing with phosphate-buffered saline, β-galactosidase enzyme activity is determined by adding 200 μl of the chromogenic substrate (consisting of 3.5 mM o-nitrophenyl-β-D-galactopyranoside and 0.5% nonidet P-40 in phosphate buffered saline), incubating overnight at 30 EC and measuring optical density at 420 nm. The absorbance is a measure of enzyme activity, which depends on cell number and reflects a receptor-mediated cell proliferation. The EC50 and maximal effect of each drug at each alpha2 receptor is determined. The efficacy or intrinsic activity is calculated as a ratio of the maximal effect of the drug to the maximal effect of a standard full agonist for each receptor subtype. Brimonidine, also called UK14304, the chemical structure of which is shown below, is used as the standard agonist for the alpha2A, alpha2B and alpha2C receptors.
(§5) The results of the RSAT assay with several exemplary compounds of the invention are disclosed in Table 1 above together with the chemical formulas of these examplary compounds. […] NA stands for “not active” at concentrations less than 10 micromolar. As is known EC50 is the concentration at which half of a given compound's maximal activity is observed.

In test [2] the target is T2, alpha2C adrenergic receptors (Homo sapiens, UniProt P18825).
T2 construct: expressed in transfected cells; host or cells: NIH-3T3
T2 sequence (P18825 1-462): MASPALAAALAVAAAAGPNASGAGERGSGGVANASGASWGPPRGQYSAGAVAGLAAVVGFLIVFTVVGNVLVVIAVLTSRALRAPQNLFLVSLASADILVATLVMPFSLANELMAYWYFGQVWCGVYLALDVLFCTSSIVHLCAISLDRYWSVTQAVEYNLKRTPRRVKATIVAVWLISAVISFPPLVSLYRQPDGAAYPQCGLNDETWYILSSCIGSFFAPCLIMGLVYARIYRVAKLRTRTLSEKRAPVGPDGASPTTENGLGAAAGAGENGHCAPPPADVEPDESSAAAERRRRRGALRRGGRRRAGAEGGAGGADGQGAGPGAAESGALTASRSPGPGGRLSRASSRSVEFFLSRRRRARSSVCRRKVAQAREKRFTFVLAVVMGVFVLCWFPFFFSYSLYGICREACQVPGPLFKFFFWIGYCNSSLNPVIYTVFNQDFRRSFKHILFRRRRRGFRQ
As to the kind of experiment: Receptor Selection and Amplification Technology (RSAT) assay, alpha2C. The test is classed as cell-based. Particulars: for EC50: NA = not active at concentrations less than 10 micromolar, read-out: Alpha 2C EC50; for Alpha 2C intrinsic activity: fraction of maximal effect of standard full agonist brimonidine (UK14304).
Description: as §1, §2, §3, §4, §5

As to `S=c1[nH]cc(CC2CCc3ccccc32)[nH]1` (stereo not shown) [drawing 16], in test [1], the 50% effective concentration (EC50) was 10 nM and the “Alpha 2B intrinsic activity” value turned out to be 0.91. In test [2], the concentration for a half-maximal effect (EC50) is 182 nM and the “Alpha 2C intrinsic activity” value is 0.57.
Taken in the same sequence, the figures for `S=c1[nH]cc(C2Cc3cccc(Cl)c3C2)[nH]1` (stereo not shown) were less than 2 nM, 1.15, 45 nM and 0.74.
Taken in the same sequence, the figures for `CC(C)CC1=CCCC1Cc1c[nH]c(=S)[nH]1` (stereo not shown) were 260 nM, 1.0, 662 nM and 0.75.
The matching figures for `N#Cc1ccc(C2=CCCC2Cc2c[nH]c(=S)[nH]2)cc1` (stereo not shown): 498 nM, 0.91, 155 nM and 1.01.
As for `Cc1cccc2c1CC(c1c[nH]c(=S)[nH]1)C2` (stereo not shown), in test [1], the EC50 came out at 3 nM and the “Alpha 2B intrinsic activity” value was 0.99. For the same molecule, in test [2], the EC50 was found to be 13 nM and the “Alpha 2C intrinsic activity” value is recorded as 0.62.
The matching figures for `Cc1cccc2c1C(=O)C(Cc1c[nH]c(=S)[nH]1)CC2` (stereo not shown): 29 nM, 0.96, 66 nM and 0.47.
On to `Fc1cc(F)cc(C2=CCC[C@H]2Cc2c[nH]c(=S)[nH]2)c1`, for which, in test [1], the concentration for a half-maximal effect (EC50) amounted to 472 nM and the “Alpha 2B intrinsic activity” value worked out at 0.83. Further, in test [2], the EC50 worked out at 790 nM and the “Alpha 2C intrinsic activity” value is on record as 0.58.
For the molecule `COc1ccc2c(c1)C(Cc1c[nH]c(=S)[nH]1)CC2` (stereo not shown), in test [1], the concentration giving a half-maximal response (EC50) was 30 nM and the “Alpha 2B intrinsic activity” value is given as 0.94. For the same molecule, in test [2], the EC50 was 139 nM and the “Alpha 2C intrinsic activity” value came to 1.0.
The matching figures for `CCCC1=C(c2ccc(F)cc2)C(Cc2c[nH]c(=S)[nH]2)CC1` (stereo not shown): 603 nM, 0.98, 57 nM and 0.5.
For the molecule `Cc1ccc(C2=CCCC2Cc2c[nH]c(=S)[nH]2)cc1` (stereo not shown), in test [1], the EC50 was 2180 nM and the “Alpha 2B intrinsic activity” value is 0.47. Also, in test [2], the 50% effective concentration (EC50) is greater than 3000 nM and the “Alpha 2C intrinsic activity” value amounted to 0.46.
Taken in the same sequence, the figures for `Fc1ccc(C2=CCC[C@@H]2Cc2c[nH]c(=S)[nH]2)cc1` were 269 nM, 0.97, 131 nM and 0.72.
Take `CC1=C(c2ccc(C#N)cc2)C(Cc2c[nH]c(=S)[nH]2)CC1` (stereo not shown): in test [1], the EC50 was 22 nM and the “Alpha 2B intrinsic activity” value was 0.93. Also, in test [2], the EC50 came out at 41 nM and the “Alpha 2C intrinsic activity” value came out at 0.85.
The matching figures for `S=c1[nH]cc(CC2CC=CC2)[nH]1` [drawing 24]: 24 nM, 0.85, 180 nM and 0.51.
Consider `S=c1[nH]cc(C[C@@H]2CCc3ccccc32)[nH]1`, for which, in test [1], the concentration giving a half-maximal response (EC50) was determined as 24.5 nM and the “Alpha 2B intrinsic activity” value is listed as 0.97. Besides, in test [2], the EC50 came to 630 nM and the “Alpha 2C intrinsic activity” value was determined as 0.61.
The matching figures for `COc1ccc2c(c1)CCC2Cc1c[nH]c(=S)[nH]1` (stereo not shown): 1590 nM, 0.68, greater than 2000 nM and 0.46.
The matching figures for `Fc1ccc2c(c1)CCC2Cc1c[nH]c(=S)[nH]1` (stereo not shown): 41 nM, 0.97, 1110 nM and 0.52.
Taken in the same sequence, the figures for `Fc1ccc(C2=CCCC2Cc2c[nH]c(=S)[nH]2)c(F)c1` (stereo not shown) were 219 nM, 0.42, 290 nM and 0.62.
For the molecule `Cc1ccc2c(c1)CC(c1c[nH]c(=S)[nH]1)C2` (stereo not shown), in test [1], the 50% effective concentration (EC50) turned out to be 27 nM and the “Alpha 2B intrinsic activity” value worked out at 1.12. Further, in test [2], the EC50 stood at 374 nM and the “Alpha 2C intrinsic activity” value turned out to be 0.45.
Taken in the same sequence, the figures for `Fc1ccc(C2=CCCC2Cc2c[nH]c(=S)[nH]2)cc1F` (stereo not shown) were 225 nM, 0.44, 205 nM and 0.68.
Taken in the same sequence, the figures for `COc1ccc(C2=CCCC2Cc2c[nH]c(=S)[nH]2)cc1` (stereo not shown) were greater than 3000 nM, 0.56, 568 nM and 0.47.
Taken in the same sequence, the figures for `S=c1[nH]cc(C2Cc3cccc(Br)c3C2)[nH]1` (stereo not shown) were 5 nM, 1.07, 106 nM and 0.87.
Consider `CCC1=CC(Cc2c[nH]c(=S)[nH]2)CC1` (stereo not shown), for which, in test [1], the concentration giving a half-maximal response (EC50) was found to be 750 nM and the “Alpha 2B intrinsic activity” value is 0.49. Moreover, in test [2], the concentration giving a half-maximal response (EC50) was greater than 2000 nM and the “Alpha 2C intrinsic activity” value was 0.32.
The matching figures for `CC=CC1=CCCC1Cc1c[nH]c(=S)[nH]1` (stereo not shown): 1620 nM, 0.88, 2470 nM and 0.72.
The matching figures for `Cc1ccc(C)c2c1CC(c1c[nH]c(=S)[nH]1)C2`: 7 nM, 1.27, 92 nM and 0.86.
The matching figures for `CC1CC(Cc2c[nH]c(=S)[nH]2)C(=O)c2ccccc21` (stereo not shown): 523 nM, 0.96, greater than 2000 nM and 0.61.
With `CC1CC(Cc2c[nH]c(=S)[nH]2)c2ccccc21` (stereo not shown), in test [1], the EC50 is 33 nM and the “Alpha 2B intrinsic activity” value amounted to 1.01. Further, in test [2], the concentration for a half-maximal effect (EC50) amounted to 1020 nM and the “Alpha 2C intrinsic activity” value is recorded as 1.39.
On to `Fc1ccc(F)c(C2=CCCC2Cc2c[nH]c(=S)[nH]2)c1` (stereo not shown), for which, in test [2], the EC50 stood at 430 nM and the “Alpha 2C intrinsic activity” value amounted to 0.38.
For `CC1=C(Br)C(Cc2c[nH]c(=S)[nH]2)CC1` (stereo not shown), in test [1], the EC50 was 27 nM and the “Alpha 2B intrinsic activity” value is recorded as 0.95. Also, in test [2], the EC50 worked out at 139 nM and the “Alpha 2C intrinsic activity” value turned out to be 0.48.
In the case of `Fc1ccccc1C1=CCCC1Cc1c[nH]c(=S)[nH]1` (stereo not shown), in test [2], the EC50 came to 994 nM and the “Alpha 2C intrinsic activity” value is 0.53.
